Reference: ChEMBL document CHEMBL1759865, “Synthesis, biological assessment and molecular modeling of 14-aryl-10,11,12,14-tetrahydro-9H-benzo[5,6]chromeno[2,3-b]quinolin-13-amines” (Bioorg Med Chem Lett, 2011)
The source made the active and inactive calls. The rule behind the calls is not given here.

Assays:
[1] = target: T1, Acetylcholinesterase (Electrophorus electricus, UniProt O42275)
Description: Inhibition of Electrophorus electricus acetylcholinesterase preincubated with compound for 10 mins using acetylcholine iodide as substrate after 15 mins by spectrophotometric analysis

[2] = species on record: Bos taurus; assay: Inhibition of K(+)-induced intracellular Ca2+ uptake in bovine Chromaffin cells at 100 uM; type: functional, cell-based
[3] = target: Cholinesterase (Equus caballus, UniProt P81908)
Sequence of Cholinesterase (P81908 whole entry): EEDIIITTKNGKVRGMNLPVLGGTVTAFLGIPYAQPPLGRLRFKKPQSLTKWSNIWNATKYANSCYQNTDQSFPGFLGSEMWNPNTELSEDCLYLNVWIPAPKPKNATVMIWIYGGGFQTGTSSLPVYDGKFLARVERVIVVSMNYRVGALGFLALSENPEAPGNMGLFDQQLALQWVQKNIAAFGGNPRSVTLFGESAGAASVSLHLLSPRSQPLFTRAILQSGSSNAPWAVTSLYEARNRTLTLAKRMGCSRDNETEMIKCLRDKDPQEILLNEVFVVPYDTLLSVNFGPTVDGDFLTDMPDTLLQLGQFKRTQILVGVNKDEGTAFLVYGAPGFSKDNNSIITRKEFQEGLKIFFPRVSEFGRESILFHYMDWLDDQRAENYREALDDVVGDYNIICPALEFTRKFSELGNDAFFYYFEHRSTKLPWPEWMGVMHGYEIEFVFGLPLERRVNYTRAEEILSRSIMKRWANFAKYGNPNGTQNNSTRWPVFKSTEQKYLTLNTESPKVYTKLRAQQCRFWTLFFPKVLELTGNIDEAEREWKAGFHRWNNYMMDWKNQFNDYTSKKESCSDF
Description: Inhibition of horse serum butyrylcholinesterase preincubated with compound for 10 mins using butrylcholine iodide as substrate after 15 mins by spectrophotometric analysis

[4] = system: SH-SY5Y; assay: Neuroprotective activity in human SH-SY5Y cells by MTT assay; type: functional
[5] = Inhibition of […]-induced intracellular Ca2+ uptake in bovine Chromaffin cells at 100 uM; type: functional; conditions: Bos taurus
[6] = target: T1, Acetylcholinesterase; assay: Mixed inhibition of Electrophorus electricus acetylcholinesterase using […] substrate by Ellman's method
[7] = target: T2, Acetylcholinesterase (Bos taurus) (UniProt P23795); assay: Displacement of propidium iodide from peripheral anionic site of bovine erythrocyte AChE at 0.1 to 3 uM after 20 hrs by fluorescence plate reader
T2 sequence (whole entry): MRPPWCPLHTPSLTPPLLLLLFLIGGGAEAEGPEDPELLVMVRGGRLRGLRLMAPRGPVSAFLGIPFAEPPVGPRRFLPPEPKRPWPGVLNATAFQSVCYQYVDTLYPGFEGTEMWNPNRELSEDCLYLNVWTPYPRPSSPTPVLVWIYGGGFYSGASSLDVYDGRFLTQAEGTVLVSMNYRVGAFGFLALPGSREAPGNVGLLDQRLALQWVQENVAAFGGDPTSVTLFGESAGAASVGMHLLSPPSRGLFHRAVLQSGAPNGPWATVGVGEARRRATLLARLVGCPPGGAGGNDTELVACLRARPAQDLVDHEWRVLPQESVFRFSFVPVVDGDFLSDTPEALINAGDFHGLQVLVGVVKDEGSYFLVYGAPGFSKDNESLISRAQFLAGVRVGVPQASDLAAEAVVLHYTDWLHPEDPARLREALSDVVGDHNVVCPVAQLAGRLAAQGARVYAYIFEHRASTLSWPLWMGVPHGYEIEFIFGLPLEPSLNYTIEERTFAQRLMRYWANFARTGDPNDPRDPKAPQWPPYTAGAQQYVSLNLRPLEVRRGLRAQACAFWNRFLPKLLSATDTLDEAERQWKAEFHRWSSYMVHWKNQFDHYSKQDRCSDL

[8] = target: Acetylcholinesterase (Electrophorus electricus) (UniProt O42275); assay: Ratio of compound IC50 to tacrine IC50 for Electrophorus electricus acetylcholinesterase
Sequence of Acetylcholinesterase (Electrophorus electricus) (O42275 24-633 limits assumed): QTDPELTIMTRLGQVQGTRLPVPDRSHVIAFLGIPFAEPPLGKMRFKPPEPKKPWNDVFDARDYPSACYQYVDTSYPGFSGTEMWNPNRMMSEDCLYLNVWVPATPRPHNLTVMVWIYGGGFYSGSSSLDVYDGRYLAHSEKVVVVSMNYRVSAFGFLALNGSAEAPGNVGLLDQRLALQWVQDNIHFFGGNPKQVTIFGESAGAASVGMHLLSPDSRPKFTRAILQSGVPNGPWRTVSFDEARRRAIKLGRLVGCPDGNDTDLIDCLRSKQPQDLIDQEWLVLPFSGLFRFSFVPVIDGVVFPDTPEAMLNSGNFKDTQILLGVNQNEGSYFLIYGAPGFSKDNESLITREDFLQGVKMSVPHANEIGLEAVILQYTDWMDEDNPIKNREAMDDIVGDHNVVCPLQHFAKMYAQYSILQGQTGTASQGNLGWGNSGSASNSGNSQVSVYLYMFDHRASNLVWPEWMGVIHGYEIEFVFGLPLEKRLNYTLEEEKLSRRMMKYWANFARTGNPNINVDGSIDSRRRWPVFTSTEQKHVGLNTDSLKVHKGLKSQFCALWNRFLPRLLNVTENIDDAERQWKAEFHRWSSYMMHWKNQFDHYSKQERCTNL

T1 sequence (O42275 whole entry): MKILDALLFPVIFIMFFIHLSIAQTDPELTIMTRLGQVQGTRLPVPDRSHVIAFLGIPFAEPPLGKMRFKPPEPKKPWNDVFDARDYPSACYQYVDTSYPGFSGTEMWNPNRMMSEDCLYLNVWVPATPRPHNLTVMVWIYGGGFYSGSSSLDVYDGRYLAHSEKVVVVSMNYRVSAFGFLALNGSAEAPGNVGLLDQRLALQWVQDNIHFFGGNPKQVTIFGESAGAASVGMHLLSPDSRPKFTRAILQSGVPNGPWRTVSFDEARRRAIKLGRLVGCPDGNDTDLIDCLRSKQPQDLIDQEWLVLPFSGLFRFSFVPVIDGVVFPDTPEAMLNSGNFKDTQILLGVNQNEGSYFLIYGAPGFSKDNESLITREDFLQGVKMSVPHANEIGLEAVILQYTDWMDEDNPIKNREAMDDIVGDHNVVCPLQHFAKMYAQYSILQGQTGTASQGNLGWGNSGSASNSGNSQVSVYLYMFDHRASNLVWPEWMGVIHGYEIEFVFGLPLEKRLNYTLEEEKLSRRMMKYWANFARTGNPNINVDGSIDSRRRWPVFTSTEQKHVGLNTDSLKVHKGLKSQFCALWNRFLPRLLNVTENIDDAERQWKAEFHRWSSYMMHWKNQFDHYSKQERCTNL

SMILES	IC50 [1] [µM]	Activity [2]	IC50 [3] [µM]	Activity [4] [%]	inhibition at 100 µM [5] [%]	Ki [6] [µM]	Activity [7]	Ratio IC50 [8]
Nc1c2c(nc3c1C(c1ccc([N+](=O)[O-])cc1)c1c(ccc4ccccc14)O3)CCCC2 (racemic)	0.17	inactive	> 10	<17				
CCOC(=O)C1=C(C)Oc2nc3c(c(N)c2C1c1ccc(OC)cc1)CCCC3 (centres undefined)					90			
COc1ccc(C2c3c(nc4c(c3N)CCCC4)Oc3ccc4ccccc4c32)cc1 (racemic)	0.018	inactive	> 10	<17				
COc1ccccc1C1c2c(nc3c(c2N)CCCC3)Oc2ccc3ccccc3c21 (racemic)	0.02	inactive	> 10	<17				
COc1cc(C2c3c(nc4c(c3N)CCCC4)Oc3ccc4ccccc4c32)cc(OC)c1OC (racemic)	0.026	inactive	> 10	<17				
Cc1ccc(C2c3c(nc4c(c3N)CCCC4)Oc3ccc4ccccc4c32)cc1 (racemic)	0.043	inactive	> 10	<17				
COc1cccc(C2c3c(nc4c(c3N)CCCC4)Oc3ccc4ccccc4c32)c1 (racemic)	0.016	inactive	> 10	<17				
Nc1c2c(nc3c1C(c1ccc(O)cc1)c1c(ccc4ccccc14)O3)CCCC2 (racemic)	0.007	inactive	> 10	<17		0.005	inactive	4
COc1ccc(C2c3c(nc4c(c3N)CCCC4)Oc3ccc4ccccc4c32)cc1OC (racemic)	0.026	inactive	> 10	<17				
COc1cc(C2c3c(nc4c(c3N)CCC4)Oc3ccc4ccccc4c32)ccc1O (racemic)	0.101	inactive	> 10	<17				
COc1cc(C2c3c(nc4c(c3N)CCCC4)Oc3ccc4ccccc4c32)ccc1O (racemic)	0.028	inactive	> 10	<17				
